From patent publication US20110105509A1 (Wyeth, LLC, priority 2009, published 2011)

target: T1, CRTH2 (Homo sapiens, UniProt Q9Y5Y4); test: FRET based competitive immunoassay (cAMP) in CRTH2 expressing CHO cells; assay type: cell-based; conditions: CRTH2 expressing CHO cells incubated with forskolin and PGD2; Eu3+ cryptate-labeled anti-cAMP and d2-labeled cAMP
T1 construct: expressed in transfected cells; host or cells: CHO cells
T1 sequence (Q9Y5Y4 1-395): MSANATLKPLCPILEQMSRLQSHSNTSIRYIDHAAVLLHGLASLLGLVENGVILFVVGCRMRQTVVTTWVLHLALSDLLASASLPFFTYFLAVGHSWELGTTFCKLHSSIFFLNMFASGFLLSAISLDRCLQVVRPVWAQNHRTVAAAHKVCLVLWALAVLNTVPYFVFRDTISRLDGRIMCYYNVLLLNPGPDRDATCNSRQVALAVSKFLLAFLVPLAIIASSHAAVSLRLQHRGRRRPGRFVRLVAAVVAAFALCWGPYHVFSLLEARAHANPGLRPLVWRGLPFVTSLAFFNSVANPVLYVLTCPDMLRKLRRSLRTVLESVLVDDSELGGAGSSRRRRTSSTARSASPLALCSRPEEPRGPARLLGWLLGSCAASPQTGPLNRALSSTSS
Method: FRET Assay: To evaluate potency compounds were tested in a FRET based competitive immunoassay in which CRTH2 expressing CHO cells were incubated in the presence of forskolin and PGD2 along with Eu3+ cryptate-labeled anti-cAMP and d2-labeled cAMP.

| IC50 | SMILES |
| --- | --- |
| 60 nM | Cc1c(-c2nn(Cc3ccccc3)c(=O)c3ccccc23)c2cc(F)cc(F)c2n1CC(=O)O [Example 244, 2-(3-(3-benzyl-4-oxo-3,4-dihydrophthalazin-1-yl)-5,7-difluoro-2-methyl-1H-indol-1-yl)acetic acid] |
| 587 nM | Cc1c(-c2nn(Cc3ccccc3)c(=O)c3ccccc23)c2cc(Cl)cc(Cl)c2n1CC(=O)O [Example 245, 2-(3-(3-benzyl-4-oxo-3,4-dihydrophthalazin-1-yl)-5,7-dichloro-2-methyl-1H-indol-1-yl)acetic acid] |
| > 2000 nM | Cc1c(-c2ccc(=O)n(Cc3ccccc3)n2)c2cccc(Br)c2n1CC(=O)O [Example 246, 2-(3-(1-benzyl-6-oxo-1,6-dihydropyridazin-3-yl)-7-bromo-2-methyl-1H-indol-1-yl)-acetic acid] |
| 12 nM | Cc1c(-c2cn(Cc3ccccc3)c(=O)c3ccccc23)c2ccccc2n1CC(=O)O [Example 247, 2-(3-(2-benzyl-1-oxo-1,2-dihydroisoquinolin-4-yl)-2-methyl-1H-indol-1-yl)-acetic acid] |
| 15 nM | Cc1c(-c2cn(Cc3ccccc3)c(=O)c3ccccc23)c2cc(F)ccc2n1CC(=O)O [Example 248, 2-(3-(2-benzyl-1-oxo-1,2-dihydroisoquinolin-4-yl)-5-fluoro-2-methyl-1H-indol-1-yl)acetic acid] |
| 5 nM | Cc1c(-c2cn(C(C)C)c(=O)c3ccccc23)c2cc(F)ccc2n1CC(=O)O [Example 249, 2-(5-fluoro-3-(2-isopropyl-1-oxo-1,2-dihydroisoquinolin-4-yl)-2-methyl-1H-indol-1-yl)acetic acid] |
| 4 nM | Cc1c(-c2cn(CC(F)(F)F)c(=O)c3ccccc23)c2cc(F)ccc2n1CC(=O)O [Example 250, 2-(5-fluoro-2-methyl-3-(1-oxo-2-(2,2,2-trifluoroethyl)-1,2-dihydroiso-quinolin-4-yl)-1H-indol-1-yl)acetic acid] |
| 205 nM | Cc1c(-c2cn(CC(F)(F)F)c(=O)c3ccccc23)c2ccccc2n1CC(=O)O [Example 251, 2-(2-methyl-3-(1-oxo-2-(2,2,2-trifluoroethyl)-1,2-dihydroisoquinolin-4-yl)-1H-indol-1-yl)acetic acid] |
| 12 nM | Cc1c(-c2cn(C(C)C)c(=O)c3ccccc23)c2ccccc2n1CC(=O)O [Example 252, 2-(3-(2-isopropyl-1-oxo-1,2-dihydroisoquinolin-4-yl)-2-methyl-1H-indol-1-yl)acetic acid] |
| 9 nM | COC(F)(F)Cn1cc(-c2c(C)n(CC(=O)O)c3ccccc23)c2ccccc2c1=O [Example 253, 2-(3-(2-(2,2-difluoro-2-methoxyethyl)-1-oxo-1,2-dihydroisoquinolin-4-yl)-2-methyl-1H-indol-1-yl)acetic acid] |
| 15 nM | Cc1c(-c2cn(CC(C)(C)O)c(=O)c3ccccc23)c2cc(F)ccc2n1CC(=O)O [Example 254, 2-(5-fluoro-3-(2-(2-hydroxy-2-methylpropyl)-1-oxo-1,2-dihydroisoquinolin-4-yl)-2-methyl-1H-indol-1-yl)acetic acid] |
| 55 nM | Cc1c(-c2cn(CC(O)(C(F)(F)F)C(F)(F)F)c(=O)c3ccccc23)c2cc(F)ccc2n1CC(=O)O [Example 255, 2-(5-fluoro-2-methyl-3-(1-oxo-2-(3,3,3-trifluoro-2-hydroxy-2-(trifluoro-methyl)propyl)-1,2-dihydroisoquinolin-4-yl)-1H-indol-1-yl)acetic acid] |
| 2 nM | Cc1c(-c2cn(CCCC(F)(F)F)c(=O)c3ccccc23)c2cc(F)ccc2n1CC(=O)O [Example 256, (5-fluoro-2-methyl-3-(1-oxo-2-(4,4,4-trifluorobutyl)-1,2-dihydroisoquinolin-4-yl)-1H-indol-1-yl)acetic acid] |
| 3 nM | Cc1c(-c2cn(CC(C)(C)C)c(=O)c3ccccc23)c2cc(F)ccc2n1CC(=O)O [Example 257, 2-(5-fluoro-2-methyl-3-(2-neopentyl-1-oxo-1,2-dihydroisoquinolin-4-yl)-1H-indol-1-yl)acetic acid] |
| 11 nM | Cc1c(-c2nn(CC(N)=O)c(=O)c3ccccc23)c2cc(F)ccc2n1CC(=O)O [Example 258, {3-[3-(2-amino-2-oxoethyl)-4-oxo-3,4-dihydrophthalazin-1-yl]-5-fluoro-2-methyl-1H-indol-1-yl}acetic acid] |
| 61 nM | Cc1c(-c2nn(Cc3nnc[nH]3)c(=O)c3ccccc23)c2cc(Cl)ccc2n1CC(=O)O [Example 259a, 2-(3-(3-((4H-1,2,4-triazol-3-yl)methyl)-4-oxo-3,4-dihydrophthalazin-1-yl)-5-chloro-2-methyl-1H-indol-1-yl)acetic acid] |
| 26 nM | Cc1nnc(Cn2nc(-c3c(C)n(CC(=O)O)c4ccc(Cl)cc34)c3ccccc3c2=O)[nH]1 [Example 259b, 2-(5-chloro-2-methyl-3-(3-((5-methyl-4H-1,2,4-triazol-3-yl)methyl)-4-oxo-3,4-dihydrophthalazin-1-yl)-1H-indol-1-yl)acetic acid] |

| IC50 | SMILES |
| --- | --- |
| 23 nM | Cc1c(-c2nn(CC(N)=O)c(=O)c3ccccc23)c2cc(Cl)ccc2n1CC(=O)O [Example 259c, 2-(3-(3-(2-amino-2-oxoethyl)-4-oxo-3,4-dihydrophthalazin-1-yl)-5-chloro-2-methyl-1H-indol-1-yl)acetic acid] |
| 3380 nM | Cc1c(-c2ccc(=O)n(Cc3nnc[nH]3)n2)c2cc(F)ccc2n1CC(=O)O [Example 260a, 2-(3-(1-((4H-1,2,4-triazol-3-yl)methyl)-6-oxo-1,6-dihydropyridazin-3-yl)-5-fluoro-2-methyl-1H-indol-1-yl)acetic acid] |
| 1650 nM | Cc1nnc(Cn2nc(-c3c(C)n(CC(=O)O)c4ccc(F)cc34)ccc2=O)[nH]1 [Example 260b, 2-(5-fluoro-2-methyl-3-(1-((5-methyl-4H-1,2,4-triazol-3-yl)methyl)-6-oxo-1,6-dihydro-pyridazin-3-yl)-1H-indol-1-yl)acetic acid] |
| 11 nM | Cc1c(-c2nn(Cc3ncnn3-c3ccccc3)c(=O)c3ccccc23)c2cc(F)ccc2n1CC(=O)O [Example 261, 2-(5-fluoro-2-methyl-3-(4-oxo-3-((1-phenyl-1H-1,2,4-triazol-5-yl)methyl)-3,4-dihydrophthalazin-1-yl)-1H-indol-1-yl)acetic acid] |
| > 10000 nM | COc1ccc(C(=O)n2c(C)c(-c3ccc(=O)n(Cc4ccccc4)n3)c3cc(F)ccc32)cc1 [Example 262a, 2-benzyl-6-(5-fluoro-1-(4-methoxybenzoyl)-2-methyl-1H-indol-3-yl)-pyridazin-3(2H)-one] |
| > 10000 nM | Cc1c(-c2ccc(=O)n(Cc3ccccc3)n2)c2cc(F)ccc2n1C(=O)c1cccnc1 [Example 262b, 2-benzyl-6-(5-fluoro-2-methyl-1-nicotinoyl-1H-indol-3-yl)pyridazin-3(2H)-one] |
| > 10000 nM | Cc1c(-c2ccc(=O)n(Cc3ccccc3)n2)c2cc(F)ccc2n1Cc1ccccc1 [Example 262c, 6-(1-benzyl-5-fluoro-2-methyl-1H-indol-3-yl)-2-benzylpyridazin-3(2H)-one] |
| 42 nM | Cc1c(-c2ccc(=O)n(Cc3ccccc3)c2)c2ccccc2n1CC(=O)O [Example 263, 2-(3-(1-benzyl-6-oxo-1,6-dihydropyridin-3-yl)-2-methyl-1H-indol-1-yl)acetic acid] |
| 10 nM | Cc1c(-c2ccc(=O)n(Cc3ccccc3)c2)c2cc(Cl)ccc2n1CC(=O)O [Example 264, 2-(3-(1-benzyl-6-oxo-1,6-dihydropyridin-3-yl)-5-chloro-2-methyl-1H-indol-1-yl)acetic acid] |
| 5 nM | Cc1c(-c2ccc(=O)n(Cc3ccccc3)c2)c2cc(F)ccc2n1CC(=O)O [Example 265, 2-(3-(1-benzyl-6-oxo-1,6-dihydropyridin-3-yl)-5-fluoro-2-methyl-1H-indol-1-yl)acetic acid] |
| 9 nM | Cc1c(-c2ccc(=O)n(Cc3ccccc3F)c2)c2cc(F)ccc2n1CC(=O)O [Example 266, 2-(5-fluoro-3-(1-(2-fluorobenzyl)-6-oxo-1,6-dihydropyridin-3-yl)-2-methyl-1H-indol-1-yl)acetic acid] |
| 6 nM | Cc1c(-c2ccc(=O)n(Cc3ccc(F)cc3)c2)c2cc(F)ccc2n1CC(=O)O [Example 267, 2-(5-fluoro-3-(1-(4-fluorobenzyl)-6-oxo-1,6-dihydropyridin-3-yl)-2-methyl-1H-indol-1-yl)acetic acid] |
| 7 nM | Cc1c(-c2ccc(=O)n(Cc3c(F)cccc3F)c2)c2cc(F)ccc2n1CC(=O)O [Example 268, 2-(3-(1-(2,6-difluorobenzyl)-6-oxo-1,6-dihydropyridin-3-yl)-5-fluoro-2-methyl-1H-indol-1-yl)acetic acid] |
| 1 nM | Cc1c(-c2ccc(=O)n(Cc3cccc(F)c3F)c2)c2cc(F)ccc2n1CC(=O)O [Example 269, 2-(3-(1-(2,3-difluorobenzyl)-6-oxo-1,6-dihydropyridin-3-yl)-5-fluoro-2-methyl-1H-indol-1-yl)acetic acid] |
| > 5500 nM | Cc1c(-c2nn(Cc3nnc[nH]3)c(=O)c3ccccc23)c2cc(F)ccc2n1CC(=O)O [Example 270, 2-(3-(3-((4H-1,2,4-triazol-3-yl)methyl)-4-oxo-3,4-dihydrophthalazin-1-yl)-5-fluoro-2-methyl-1H-indol-1-yl)acetic acid] |
| 12 nM | Cc1c(-c2ccc(=O)n(Cc3cc(F)c(F)cc3F)c2)c2cc(F)ccc2n1CC(=O)O [Example 271, 2-(5-Fluoro-2-methyl-3-(6-oxo-1-(2,4,5-trifluorobenzyl)-1,6-dihydropyridin-3-yl)-1H-indol-1-yl)acetic acid] |
